Experimental data reported in US20260116868A1 (Arcus Biosciences, Inc., priority 2023, published 2026).

Biological target: T1, Cbl-b (Homo sapiens, UniProt Q13191)
T1 construct: biotin (biotinylated protein)
Assay: Cbl-b probe displacement HTRF binding assay
Conditions: 0.4 nM Cbl-b, 150 nM BODIPY probe
Description: The affinity with which compounds of the present disclosure bind to Cbl-b was assessed using probe displacement homologous time resolved fluorescence (HTRF) assays. The assays used a BODIPY™ conjugated probe (Example 54 from WO 2020264398) and biotinylated Cbl-b. The assays were performed in assay buffer consisting of 20 mM Hepes, 150 mM NaCl, 0.01% Triton X-100, 0.5 mM TCEP, 0.01% BSA. On the day of the assay, a 20 point, 1:2 master serial dilution of each compound was prepared in DMSO to span a final concentration range of […] to 0 nM. Two hundred nanoliters of diluted compound was added to each well of a 384-well plate. Fifteen microliters of biotinylated- Cbl-b resuspended in assay buffer were added to each well and the plate incubated for 60 minutes at room temperature prior to addition of 5 μL of BODIPY™ probe in assay buffer. Final assay conditions included 0.4 nM of Cbl-b and 150 nM of BODIPY™ probe. After a further 15 minutes of incubation at room temperature, 5 μl of Streptavidin-Terbium cryptate reagent at 5-fold final concentration was added to each well of the 384-well plate. Binding of a probe to Cbl-b results in an increase of HTRF signal. HTRF signal was measured by Envision plate reader, while competition of a compound of the present disclosure with probe results in a decrease of signal. Percentage maximum activity in each test well was calculated based on DMSO (maximum activity, 0% displacement) and no protein control wells (baseline activity, 100% displacement). Binding affinity was determined from a dose response curve fitted using a standard four parameter fit equation. See Table 7 for data for compounds (Cbl-b Binding (IC50)).

T1 sequence (Q13191 whole entry, species assumed): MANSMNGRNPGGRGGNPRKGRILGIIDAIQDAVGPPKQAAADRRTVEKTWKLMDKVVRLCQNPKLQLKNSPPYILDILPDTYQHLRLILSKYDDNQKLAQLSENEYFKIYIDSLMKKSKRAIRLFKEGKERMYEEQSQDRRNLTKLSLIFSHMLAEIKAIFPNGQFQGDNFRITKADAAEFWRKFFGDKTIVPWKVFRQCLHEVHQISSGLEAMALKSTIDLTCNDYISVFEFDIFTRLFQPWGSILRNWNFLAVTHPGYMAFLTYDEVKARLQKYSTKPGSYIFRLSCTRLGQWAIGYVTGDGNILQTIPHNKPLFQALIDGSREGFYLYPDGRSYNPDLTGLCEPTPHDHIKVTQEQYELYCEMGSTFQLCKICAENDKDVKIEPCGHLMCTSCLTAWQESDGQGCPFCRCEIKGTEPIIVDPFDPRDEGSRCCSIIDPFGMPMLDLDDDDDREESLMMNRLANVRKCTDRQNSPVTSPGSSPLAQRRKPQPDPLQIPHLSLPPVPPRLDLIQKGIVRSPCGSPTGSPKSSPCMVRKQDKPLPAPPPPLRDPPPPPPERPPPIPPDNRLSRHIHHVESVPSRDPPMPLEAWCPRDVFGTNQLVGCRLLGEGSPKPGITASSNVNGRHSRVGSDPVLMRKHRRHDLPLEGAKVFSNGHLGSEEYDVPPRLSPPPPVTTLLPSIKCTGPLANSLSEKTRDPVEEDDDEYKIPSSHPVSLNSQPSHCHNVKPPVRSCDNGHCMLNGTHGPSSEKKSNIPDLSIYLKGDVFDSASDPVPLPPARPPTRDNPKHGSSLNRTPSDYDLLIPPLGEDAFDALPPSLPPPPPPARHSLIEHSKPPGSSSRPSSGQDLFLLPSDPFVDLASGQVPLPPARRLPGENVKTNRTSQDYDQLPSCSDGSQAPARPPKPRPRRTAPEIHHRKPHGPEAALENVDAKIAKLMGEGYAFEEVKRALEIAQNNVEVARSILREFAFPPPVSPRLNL

IC50 [nM] | SMILES
< 100 | CC(C)CNCc1cc(C(=O)Nc2cc(-c3ccc(OC(F)F)cc3C(=O)N3CC(F)C3)cc(OC(C)C)n2)c(=O)n(C)c1 [Example 294]
< 100 | CO[C@@H](C)CNC(C)c1cc(C(=O)Nc2cc(-c3ccc(C#N)cc3C(=O)N3CC(F)(F)C3)cc(C3CC3)n2)c(=O)n(C2CC2)c1 (stereo partly shown) [Example 324]
< 100 | COc1ccc(-c2cc(NC(=O)c3cc(CNCC(C)C)cn(C4CC4)c3=O)nc(OC(C)C)c2)c(C(=O)N2CC(F)C2)c1 [Example 281]
< 100 | CC(C)Oc1cc(-c2ccc(Cl)cc2C(=O)N2CC(F)C2)cc(NC(=O)c2cc(CNC[C@@H]3CCCO3)cn(C3CC3)c2=O)n1 [Example 271]
< 100 | CO[C@@H](C)CNCc1cc(C(=O)Nc2cc(-c3ccc(OC(F)F)cc3C(=O)N3CC(F)(F)C3)cc(C)n2)c(=O)n(C2CC2)c1 [Example 338]
< 100 | COc1ccc(-c2cc(NC(=O)c3cc(CN[C@@H](C)C4CCC4)cn(C4CC4)c3=O)nc(OC(C)C)c2)c(C(=O)N2CC(F)(F)C2)c1 [Example 276]
< 100 | CO[C@@H](C)[C@H](C)NCc1cc(C(=O)Nc2cc(-c3ccc(Cl)cc3C(=O)N3CC(F)C3)cc(OC(C)C)n2)c(=O)n(C2CC2)c1 [Example 259]
< 100 | N#Cc1ccc(-c2cc(NC(=O)c3cc(CN[C@H]4CCC[C@@H]4O)cn(C4CC4)c3=O)nc(C3CC3)c2)c(C(=O)N2CC(F)(F)C2)c1 [Example 409]
< 100 | COc1ccc(-c2cc(NC(=O)c3cc(CN[C@@H](C)[C@H](C)OC)cn(C4CC4)c3=O)nc(C3CC3)c2)c(C(=O)N2CC(F)C2)c1 [Example 269]
< 100 | COc1ccc(-c2cc(NC(=O)c3cc(CNC[C@@H]4CCCO4)cn(C4CC4)c3=O)nc(C3CC3)c2)c(C(=O)N2CC(F)C2)c1 [Example 288]
< 100 | CCNc1cc(-c2ccc(Cl)cc2C(=O)N2CC(F)(F)C2)cc(NC(=O)c2cc(CNC[C@H](C)OC)cn(C)c2=O)n1 [Example 172]
< 100 | CC(C)CNCc1cc(C(=O)Nc2cc(-c3ccc(C#N)cc3C(=O)N3CC(F)(F)C3)cc(N(C)C)n2)c(=O)n(C2CC2)c1 [Example 193]
< 100 | O=C(Nc1cc(-c2c(F)cc(Cl)cc2C(=O)N2CC(F)(F)C2)cc(C2CC2)n1)c1cc(CNC[C@@H]2CCCO2)cn(C2CC2)c1=O [Example 145, N-(4-{4-chloro-2-[(3,3-difluoro-1-azetidinyl)carbonyl]-6-fluorophenyl}-6-cyclopropyl-2-pyridyl)-1-cyclopropyl-2-oxo-5-[({[(S)-perhydro-2-furyl]methyl}amino)methyl]-1,2-dihydronicotinamide]
< 100 | CC1(CNCc2cc(C(=O)Nc3cc(-c4ccc(C#N)cc4C(=O)N4CC(F)(F)C4)cc(C4CC4)n3)c(=O)n(C3CC3)c2)CC1 [Example 385]
< 100 | Cn1cc(CNCC2CC2)cc(C(=O)Nc2cc(-c3ccc(C#N)cc3C(=O)N3CC(F)(F)C3)cc(C3CC3)n2)c1=O [Example 192]
< 100 | CCNc1cc(-c2ccc(OC(F)F)cc2C(=O)N2CC(F)C2)cc(NC(=O)c2cc(CN[C@@H](C)C3CCC3)cn(C)c2=O)n1 [Example 103]
< 100 | CC(NCC1CC1)c1cc(C(=O)Nc2cc(-c3ccc(C#N)cc3C(=O)N3CC(F)(F)C3)cc(C3CC3)n2)c(=O)n(C2CC2)c1 (stereo not shown) [Example 333]
< 100 | CC(C)Oc1cc(-c2ccc(OC(F)F)cc2C(=O)N2CC(F)(F)C2)cc(NC(=O)c2cc(CN[C@@H](C)C3CCC3)cn(C3CC3)c2=O)n1 [Example 98]
< 100 | N#Cc1ccc(-c2cc(NC(=O)c3cc(CNC[C@@H]4CCCO4)cn(CC(F)(F)F)c3=O)nc(C3CC3)c2)c(C(=O)N2CC(F)(F)C2)c1 [Example 179]

IC50 [nM] | SMILES
< 100 | CC(C)Oc1cc(-c2c(F)cc(C#N)cc2C(=O)N2CC(F)(F)C2)cc(NC(=O)c2cc(CNC[C@@H]3CCCO3)cn(C)c2=O)n1 [Example 239]
< 100 | CC(C)CNCc1cc(C(=O)Nc2cc(-c3c(F)cc(C#N)cc3C(=O)N3CC(F)(F)C3)cc(OC(C)C)n2)c(=O)n(C2CC2)c1 [Example 128, N-(4-{4-cyano-2-[(3,3-difluoro-1-azetidinyl)carbonyl]-6-fluorophenyl}-6-isopropoxy-2-pyridyl)-1-cyclopropyl-5-[(isobutylamino)methyl]-2-oxo-1,2-dihydronicotinamide]
< 100 | CCOc1cc(-c2ccc(Cl)cc2C(=O)N2CC(F)(F)C2)cc(NC(=O)c2cc(CNC[C@@H]3CCCO3)cn(C3CC3)c2=O)n1 [Example 225]
< 100 | COc1ccc(-c2cc(NC(=O)c3cc(CNC[C@@H]4CCCO4)cn(C4CC4)c3=O)nc(C3CC3)c2)c(C(=O)N2CC(F)(F)C2)c1 [Example 153, N-(6-Cyclopropyl-4-{2-[(3,3-difluoro-1-azetidinyl)carbonyl]-4-methoxyphenyl}-2-pyridyl)-1-cyclopropyl-2-oxo-5-[({[(S)-perhydro-2-furyl]methyl}amino)methyl]-1,2-dihydronicotinamide]
< 100 | CC(C)Oc1cc(-c2ccc(C#N)cc2C(=O)N2CC(F)(F)C2)cc(NC(=O)c2cc(CNC[C@@H]3COCCO3)cn(C)c2=O)n1 [Example 386]
< 100 | CC(C)Oc1cc(-c2c(F)cc(C#N)cc2C(=O)N2CC(F)(F)C2)cc(NC(=O)c2cc(CN[C@@H](C)C3CCC3)cn(C)c2=O)n1 [Example 227]
< 100 | CCOc1cc(-c2ccc(Cl)cc2C(=O)N2CC(F)(F)C2)cc(NC(=O)c2cc(CN[C@@H](C)C3CC3)cn(C3CC3)c2=O)n1 [Example 124]
< 100 | CO[C@@H](C)CNCc1cc(C(=O)Nc2cc(-c3cc(F)c(Cl)cc3C(=O)N3CC(F)(F)C3)cc(C3CC3)n2)c(=O)n(C2CC2)c1 [Example 215]
< 100 | N#Cc1ccc(-c2cc(NC(=O)c3cc(CNC[C@@H]4CCCO4)cn(C4CC4)c3=O)nc(C3CC3)c2)c(C(=O)N2CC(F)(F)C2)c1 [Example 352]
< 100 | Cc1ccc(-c2cc(NC(=O)c3cc(CNC[C@@H]4CCCO4)cn(C4CC4)c3=O)nc(OCC(F)F)c2)c(C(=O)N2CC(F)(F)C2)c1 [Example 166]
< 100 | CC(C)Nc1cc(-c2c(F)cc(Cl)cc2C(=O)N2CC(F)(F)C2)cc(NC(=O)c2cc(CN[C@@H](C)C3CC3)cn(C3CC3)c2=O)n1 [Example 204]
< 100 | CCOc1cc(-c2ccc(C#N)cc2C(=O)N2CC(F)(F)C2)cc(NC(=O)c2cc(CNC[C@H](C)OC)cn(C)c2=O)n1 [Example 181]
< 100 | COC(C)(C)CNCc1cc(C(=O)Nc2cc(-c3ccc(C#N)cc3C(=O)N3CC(F)(F)C3)cc(C3CC3)n2)c(=O)n(C2CC2)c1 [Example 401]
< 100 | CCOc1cc(-c2ccc(Cl)cc2C(=O)N2CC(F)(F)C2)cc(NC(=O)c2cc(CNCC3CC3)cn(C3CC3)c2=O)n1 [Example 240]
< 100 | COc1ccc(-c2cc(NC(=O)c3cc(CNC[C@H](C)OC)cn(C4CC4)c3=O)nc(OCC(F)F)c2)c(C(=O)N2CC(F)(F)C2)c1 [Example 348]
< 100 | CC(C)CNCc1cc(C(=O)Nc2cc(-c3ccc(C(F)F)cc3C(=O)N3CC(F)C3)cc(OC(C)C)n2)c(=O)n(C2CC2)c1 [Example 310]
< 100 | CCOc1cc(-c2ccc(OC(F)F)cc2C(=O)N2CC(F)C2)cc(NC(=O)c2cc(CN[C@@H](C)C3CCC3)cn(C3CC3)c2=O)n1 [Example 247]
< 100 | COc1ccc(-c2cc(NC(=O)c3cc(CNC[C@@H]4CCCO4)cn(C4CC4)c3=O)nc(OC(C)C)c2)c(C(=O)N2CC(F)C2)c1 [Example 283]
